Activity calls are given as the source filed them.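 How the source made its calls: active means compounds giving half or more protection of infected cells from virus-caused growth loss, again on retest; inactive means the rest.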 *1 amine or outer side, *2 acyl side, *3 side chain or, on linkers, in order; H or OH if unused. Where a SMILES comes first, the peptide text is derived from it. Bridges are numbered along the chain shown (N, C = ends). [ ]: non-standard residue; d: D form. The star is where a group is joined. X12 = O=C(C1CCCNN1[*:1])[*:2]; For = O=C* Where only a bound is given, the exact number is not on record here.

In the experiment the test system is CEM cells HIV-1 protection, formazan growth assay. The experiment is described as follows: NCI AIDS Antiviral Assay. The settings on record: for IC50: measured here: growth of uninfected CEM cells. In outline:
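Five concentrations of each compound were applied to infected and uninfected human CEM cells. Protection from HIV-1 was judged from growth measured with a soluble formazan assay.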

As for `CC(=O)/C(=C\c1ccco1)C(=O)Nc1ccccc1`, the EC50 (in general, the concentration that produces a half-maximal response) was over 74.1 µM and the half-inhibitory concentration (IC50) (commonly the concentration needed to halve the response being measured) is over 74.1 µM.

Consider `NCCCCCCNS(=O)(=O)c1cccc2c(Cl)cccc12`, for which the EC50 is over 200 µM and the half-inhibitory concentration (IC50) worked out at 13.5 µM.

Take `CCN(CC)C(=O)CCCCCCCCC1CO1` (stereo not drawn): the EC50 is over 200 µM and the IC50 amounted to 115 µM.

As to `CC1CCC2(OCCO2)[C@]2(C)CC(O)C(=O)C=C12` (stereo partly drawn), the result was inactive.

With `CCC1SC2=NCCN2C1(O)c1ccc(Cl)cc1` (stereo not drawn), the EC50 is over 200 µM and the IC50 turned out to be 102 µM.

Consider `COC(=O)c1cc2ccccc2c2nc3ccccc3c(Cl)c12`, for which the EC50 was over 8.13 µM and the concentration for half-maximal inhibition (IC50) was over 8.13 µM.

With `CCOC(=O)/C=C/CCO[Si](C)(C)C(C)(C)C`, the EC50 was over 200 µM and the IC50 is over 200 µM.

For the compound `CC1=[N+]([O-])C(C)(C)N(O)C1(C)C`, the EC50 was over 200 µM and the IC50 was over 200 µM.

Turning to `CC(C)OC(=S)SSC(=S)NCCNC(=S)SSC(=S)OC(C)C`, the EC50 was over 200 µM and the IC50 amounted to 9.77 µM.

As for `O=C(O)COc1ccc(S(=O)(=O)c2ccc(OCC(=O)O)c([N+](=O)[O-])c2)cc1[N+](=O)[O-]`, the EC50 is over 200 µM and the half-maximal inhibitory concentration (IC50) is over 200 µM.

For `CCCCNc1nc(C(F)(F)F)nc2nc[nH]c12`, the EC50 was over 200 µM and the IC50 was over 200 µM.

In the case of `CN(C)CCCN1C(=S)N(CCCN(C)C)c2c3cc(O)ccc3nc3c([N+](=O)[O-])ccc1c23`, the EC50 was over 2 µM and the half-inhibitory concentration (IC50) was 0.417 µM.

On to `CCC(COCC(CC)C(=O)O)C(=O)O` (stereo not drawn), for which the result was inactive.

Regarding `CCOP(=O)(OCC)/C(C#N)=C/c1ccc(-c2ccc(F)cc2F)o1`, the outcome was inactive.

Consider `CP(=O)(O)C(N)c1ccccc1` (stereo not drawn), for which the EC50 was over 200 µM and the IC50 was over 200 µM.

Regarding `COC(=O)/C=C/CCC#Cc1ccccc1C#CCC/C=C/C(=O)OC`, the EC50 is over 200 µM and the 50% inhibitory concentration (IC50) amounted to 2.82 µM.

For `CSc1nc(Cl)c2c(n1)Sc1nc3cc4c(cc3n1C2O)OCCO4` (stereo not drawn), the EC50 is over 0.2 µM and the concentration for half-maximal inhibition (IC50) was found to be 0.0794 µM.

`CN1c2ccccc2C(=O)NC12CCNCC2`: the EC50 was over 200 µM and the 50% inhibitory concentration (IC50) is over 200 µM.

Turning to `Cc1cccc(C)c1NC(=O)CN(CC(C)C)CC(O)COc1ccccc1` (stereo not drawn), the EC50 is over 200 µM and the IC50 stood at 27.5 µM.

As to `CN(C)CCCN1C(=O)CCC(=O)Nc2ccccc2-c2ccccc21`, the outcome was inactive.

Consider `COC(=O)C(C)(C)C(OP(=S)(OC)OC)=C(C)C`, for which the EC50 is over 200 µM and the IC50 was over 200 µM.

`CCCCNc1cc(Nc2ccc(Br)cc2)nc(N)n1`: the EC50 is over 2 µM and the IC50 amounted to 1.07 µM.

Regarding `CC(C)=CCC[C@@H](C)C1=C(O)C(O)C(C)=C2N=C(c3ccccc3)C(=O)OC21` (stereo partly drawn), the EC50 was over 200 µM and the IC50 turned out to be 3.8 µM.

Turning to `COc1cc(/C=C(\NC(=O)c2ccccc2)c2nc3[nH]c(=S)[nH]c(=O)c3[nH]2)cc(OC)c1OC`, the outcome was inactive.

For the compound `C[N+]1(CC(=O)c2ccc(O)c(O)c2)CCOCC1`, the half-maximal effective concentration (EC50) is over 200 µM and the IC50 was over 200 µM.

On to `C=CCCC(=O)C(=[N+]=[N-])C(=O)CCC(=O)c1ccccc1`, for which the EC50 was over 200 µM and the IC50 worked out at 20 µM.

With `Cc1cccc(NC(=O)C(=O)Cc2nc3ccccc3[nH]c2=O)c1C`, the outcome was inactive.

Regarding `Cc1c(Cc2ccc(Cl)cc2)c(=O)[nH]c(=O)n1C`, the EC50 is over 97.7 µM and the IC50 is over 97.7 µM.

In the case of `O=C(O)/C(=C/C=C/c1ccccc1)c1csc(-c2nc(/C(=C\C=C\c3ccccc3)C(=O)O)cs2)n1`, the EC50 is over 182 µM and the half-maximal inhibitory concentration (IC50) is over 100 µM.

As for `CC(OCc1ccccc1)C(NC(=O)C1CSSCC(NC(=O)C(Cc2ccccc2)NC(=O)OCc2ccccc2)C(=O)NC(Cc2ccccc2)C(=O)NC(Cc2cn(C=O)c3ccccc23)C(=O)NC(CCCCNC(=O)OCc2ccccc2)C(=O)NC(C(C)OCc2ccccc2)C(=O)N1)C(N)=O` (stereo not drawn), the EC50 is over 100 µM and the half-inhibitory concentration (IC50) amounted to 4.47 µM.

With `N#CCCN(CCCCN(CCC#N)C(=O)Nc1ccccc1)C(=O)Nc1ccccc1`, the EC50 was over 200 µM and the half-maximal inhibitory concentration (IC50) is over 200 µM.

`CC(=O)O[C@]1(C(C)=O)CC[C@H]2[C@@H]3C=C(Cl)C4=CC(=O)CC[C@]4(C)[C@H]3CC[C@@]21C`: the EC50 is over 200 µM and the concentration for half-maximal inhibition (IC50) is over 200 µM.

As for `COC(=O)/C(=N/O)C(C(=O)OC)C(=O)C(=O)Nc1c(Cl)cc(C)cc1S(=O)(=O)O` (stereo not drawn), the EC50 was over 550 µM and the half-maximal inhibitory concentration (IC50) was over 550 µM.

In the case of `CC1=C(C(=O)Nc2cc(=O)n(C)c(=O)n2C)C(c2ccc([N+](=O)[O-])cc2)C(C(=O)Nc2cc(=O)n(C)c(=O)n2C)=C(C)N1`, the EC50 is over 8.71 µM and the concentration for half-maximal inhibition (IC50) is over 8.71 µM.

In the case of `Cc1cc(C)c2c(c1)CC1(Cc3c(C)cc(C)cc3C1=O)C2=O` (stereo not drawn), the EC50 was over 100 µM and the concentration for half-maximal inhibition (IC50) is over 100 µM.

Take `COC(=O)c1cc(C(=O)c2cc(Br)c(OC)c(C(=O)OC)c2)cc(Br)c1OC`: the EC50 was over 200 µM and the IC50 was determined as 67.6 µM.

For the compound `O/N=C1\C(=C\c2ccc3c(c2)OCCO3)CCCC1C(NO)c1ccc2c(c1)OCCO2` (stereo not drawn), the EC50 is over 16.6 µM and the concentration for half-maximal inhibition (IC50) was over 16.6 µM.

Turning to `O=C(/C=C/c1ccccc1O)c1ccccc1`, the EC50 was over 60.3 µM and the IC50 was over 60.3 µM.

Turning to `CC(C)(C)[Si](C)(C)OCc1cccc(OCCOc2cccc(CO[Si](C)(C)C(C)(C)C)c2[N+](=O)[O-])c1[N+](=O)[O-]`, the EC50 was over 50.1 µM and the IC50 is over 50.1 µM.

On to `COC(=O)CNC(=O)CSc1nnc(COc2ccc(Cl)cc2)n1-c1ccccc1`, for which the EC50 is over 200 µM and the IC50 was found to be 60.3 µM.

On to `COc1cccc(/C=C(\C#N)C(=O)c2ccccc2)c1`, for which the EC50 is over 97.7 µM and the IC50 was over 97.7 µM.

`C=C1CCC2C(C)(CO)C(O)CCC2(C)C1CC(O)/C(=C/CO)C(=O)O` (stereo not drawn): the result was inactive.

For the compound `CCOC(=O)C1=C(Nc2ccc(Br)cc2)OC/C1=N\NC(=O)c1ccccc1O`, the EC50 was over 38.9 µM and the IC50 was 3.98 µM.

`CCOC(=O)C(NC(=O)CC)(Nc1ccccc1OC)C(F)(F)F` (stereo not drawn): the EC50 is over 200 µM and the concentration for half-maximal inhibition (IC50) is over 200 µM.

In the case of `Cc1ccccc1N=Nc1ccc(N/N=C2/CCCNC2=O)c(C)c1`, the EC50 is over 200 µM and the IC50 is 182 µM.

With `CN(C)Cc1cc(C(=O)/C=C/c2ccccc2)cc(CN(C)C)c1O`, the EC50 is over 200 µM and the IC50 amounted to 25.1 µM.

Turning to `CC1(C)c2ccccc2C(C)(C)[N+]1(C)C`, the EC50 was over 200 µM and the IC50 was found to be 123 µM.

Turning to `CCC(C)C(NC=O)C(=O)NC1C(=O)NC(CC(C)C)C(=O)NC(C(C)C)C(=O)N2NCCCC2C(=O)NC(CC(C)C)C(=O)N2NCCCC2C(=O)OC1C` (stereo not drawn) (For-ITLV[X12]L[X12]; ester 2-C; configuration not given here), the EC50 was over 45.7 µM and the IC50 is 25.1 µM.

On to `C=CCNC(=S)N1c2ccccc2NC(=O)CC1C` (stereo not drawn), for which the EC50 is over 661 µM and the IC50 is over 661 µM.

Turning to `C=C1C2CC[C@H]3C45CO[C@@](O)(C(O)[C@@H]4C(C)(C)C=CC5=O)C3(C2)C1OC(C)=O` (stereo partly drawn), the EC50 was over 339 µM and the concentration for half-maximal inhibition (IC50) came out at 23.4 µM.

Source of the values: PubChem BioAssay AID179 (DTP/NCI, 2004).
